# In US20240208895A1, “BRANCHED-CHAIN AMINO ACID DERIVATIVES TO TREAT DISEASE” (INTRABIO LTD., priority 2021, published 2024):
# Legend:
# Assay type in all cases: cell-based
# [1] = target: T1, OAT3 (SLC22A8) (Homo sapiens, UniProt Q8TCC7); assay: OAT3 transporter-mediated cellular uptake (substrate test); settings: uptake 5 min, 37° C.
# T1 construct: host or cells: HEK-293
# T1 sequence (Q8TCC7 1-542): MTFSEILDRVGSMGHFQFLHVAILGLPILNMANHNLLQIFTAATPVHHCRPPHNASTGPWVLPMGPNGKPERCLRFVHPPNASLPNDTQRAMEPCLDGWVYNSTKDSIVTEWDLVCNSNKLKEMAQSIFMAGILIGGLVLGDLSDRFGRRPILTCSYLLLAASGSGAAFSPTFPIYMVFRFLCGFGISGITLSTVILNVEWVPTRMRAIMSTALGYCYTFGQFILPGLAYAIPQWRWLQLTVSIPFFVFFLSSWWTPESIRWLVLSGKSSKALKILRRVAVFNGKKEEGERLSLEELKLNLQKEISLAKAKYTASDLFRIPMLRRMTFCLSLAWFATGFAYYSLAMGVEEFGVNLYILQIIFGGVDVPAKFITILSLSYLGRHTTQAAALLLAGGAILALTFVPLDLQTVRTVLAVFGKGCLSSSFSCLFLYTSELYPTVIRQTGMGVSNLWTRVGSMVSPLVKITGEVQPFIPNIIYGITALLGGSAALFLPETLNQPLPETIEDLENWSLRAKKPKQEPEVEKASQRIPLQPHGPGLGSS
# Experimental: (§1) DMSO (0.5%) was the solvent control (SC) and the known inhibitor diclofenac (100 μM) was the positive control (PC). Data were fit to either the Michalis-Menten equation for uptake or the Hill equation for inhibition using the solvent control to define the top and the positive control inhibitor to define the bottom. Symbols represent the mean±SEM, n=3.
# (§2) Human OAT1 (SLC22A6) and OAT3 (SLC22A8) overexpressing HEK-293 cells and control cells without transfected transporter (Corning® TransportoCells™) are plated to 24-well plates and cellular uptake of 10 to 100 μg/mL of a Compound of the Disclosure is measured in the absence and presence of transporter inhibitors. Uptake of a Compound of the Disclosure into control cells is measured only without chemical inhibitors. […] Cells are grown in DMEM (Gibco 4196, high glucose, without sodium pyruvate) supplemented with MEM non-essential amino acids and 10% fetal bovine serum. Cells are re-fed with fresh medium after attachment (4-6 hours post-seeding). Cell are plated at a density of 4×10^5/well in 24-well plates coated with poly-D-lysine. Transporter assays are conducted in 400 μL of HBSS supplemented with 10 mM Hepes, pH 7.4 […]
# (§3) Enzyme kinetic data for uptake and metabolism of a Compound of the Disclosure is analysed by fitting the Michaelis-Menten equation to the data. […]
# [2] = target: T2, OAT1 (SLC22A6) (Homo sapiens, UniProt Q4U2R8); assay: OAT1 transporter-mediated cellular uptake (substrate test); settings: uptake 5 min, 37° C.
# T2 construct: host or cells: HEK-293
# T2 sequence (Q4U2R8 1-563): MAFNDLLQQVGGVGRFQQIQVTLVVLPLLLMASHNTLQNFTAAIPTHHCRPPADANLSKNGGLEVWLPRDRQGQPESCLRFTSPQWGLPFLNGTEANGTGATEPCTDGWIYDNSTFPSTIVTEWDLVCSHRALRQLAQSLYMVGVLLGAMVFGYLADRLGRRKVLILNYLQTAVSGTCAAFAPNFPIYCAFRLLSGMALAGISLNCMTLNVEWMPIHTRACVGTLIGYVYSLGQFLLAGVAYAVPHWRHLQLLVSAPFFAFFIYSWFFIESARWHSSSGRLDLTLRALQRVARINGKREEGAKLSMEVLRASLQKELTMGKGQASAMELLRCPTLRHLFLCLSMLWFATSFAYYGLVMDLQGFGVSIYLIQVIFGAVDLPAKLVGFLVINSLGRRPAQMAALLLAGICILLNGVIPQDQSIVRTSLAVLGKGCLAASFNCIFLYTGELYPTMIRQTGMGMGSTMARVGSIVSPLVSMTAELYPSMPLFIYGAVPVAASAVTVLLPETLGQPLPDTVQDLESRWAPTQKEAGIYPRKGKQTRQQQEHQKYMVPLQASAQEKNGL
# Experimental: as §1, §2, §3
# [3] = target: T2, OAT1 (SLC22A6); assay: Inhibition of OAT1 uptake of known substrate chlorothiazide; settings: probe substrate chlorothiazide 3 μM
# Experimental: as §1, §2
# The IC50 value for the test item is determined by fitting the Hill equation in the following form: […]
# [4] = target: T3, PepT1 (Homo sapiens, UniProt P46059); assay: PepT1 transporter-mediated cellular uptake (substrate test); settings: uptake 3 min, 37° C.
# T3 construct: expressed in transfected cells
# T3 sequence (P46059 1-708): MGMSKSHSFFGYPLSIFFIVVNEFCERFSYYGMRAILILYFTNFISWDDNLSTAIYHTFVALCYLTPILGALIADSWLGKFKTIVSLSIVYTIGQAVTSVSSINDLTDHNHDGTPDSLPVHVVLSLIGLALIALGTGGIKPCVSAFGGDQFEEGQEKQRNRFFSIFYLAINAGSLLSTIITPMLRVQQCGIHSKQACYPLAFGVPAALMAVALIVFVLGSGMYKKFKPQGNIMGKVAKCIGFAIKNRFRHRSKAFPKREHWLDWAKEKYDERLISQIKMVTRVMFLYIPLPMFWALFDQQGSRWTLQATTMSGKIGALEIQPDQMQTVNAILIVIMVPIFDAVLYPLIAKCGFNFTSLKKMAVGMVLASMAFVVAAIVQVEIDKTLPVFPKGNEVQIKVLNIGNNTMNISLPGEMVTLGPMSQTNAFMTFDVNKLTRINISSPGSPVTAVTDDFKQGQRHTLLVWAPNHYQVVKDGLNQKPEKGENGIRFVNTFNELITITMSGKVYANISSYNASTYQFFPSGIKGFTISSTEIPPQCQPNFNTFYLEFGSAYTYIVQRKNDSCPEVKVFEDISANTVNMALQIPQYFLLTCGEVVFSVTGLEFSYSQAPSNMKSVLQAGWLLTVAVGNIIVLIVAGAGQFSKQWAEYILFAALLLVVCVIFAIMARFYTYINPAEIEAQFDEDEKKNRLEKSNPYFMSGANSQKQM
# Experimental: as §1, with “for” for “diclofenac (100 μM) was”, “(PC) was losartan (200 μM).” for “(PC).”, “Michaelis-Menten” for “Michalis-Menten”
# Human OAT1 (SLC22A6) and OAT3 (SLC22A8) overexpressing HEK-293 cells and control cells without transfected transporter (Corning® TransportoCells™) are plated to 24-well plates and cellular uptake of 10 to 100 μg/mL of a Compound of the Disclosure is measured in the absence and presence of transporter inhibitors. Uptake of a Compound of the Disclosure into control cells is measured only without chemical inhibitors. […] Cells are grown in DMEM (Gibco 4196, high glucose, without sodium pyruvate) supplemented with MEM non-essential amino acids and 10% fetal bovine serum. Cells are re-fed with fresh medium after attachment (4-6 hours post-seeding). Cell are plated at a density of 4×10^5/well in 24-well plates coated with poly-D-lysine. Transporter assays are conducted in 400 μL of HBSS supplemented with 10 mM Hepes, pH 7.4
# The known probe substrates used as positive controls are 3 μM chlorothiazide for OAT1, 2 μM estrone-3-sulfate for OAT3, 10 μM gabapentin for LAT1, 50 μM Gly-Sar for PepT1, 500 μM thiophene-2-glyoxylic acid for MCT1. […]
structure (smiles),measurement,setting,value
CC(=O)N[C@@H](CC(C)C)C(=O)O [N-acetyl-L-leucine],substrate of OAT3 (uptake),[1],substrate
same,substrate of OAT1 (uptake),[2],substrate
same,IC50,[3],6.2 mM
same,substrate of PepT1 (uptake),[4],not a substrate
